Consider one molecule from patent US20240366648A1, “NAD-AUGMENTATION THERAPY FOR PARKINSON'S DISEASE” (Vestlandets Innovasjonsselskap AS (VIS), priority 2021, published 2024).

In experiment [1] the test system is cerebral NAD. Description: 31P-MRS of the brain, phase I trial of oral NR in newly diagnosed PD patients. Type of experiment: in vivo, human. The protocol:
A trial of tolerability and cerebral bioavailability of NAD supplementation therapy with nicotinamide riboside (“NR”), provided in the form of nicotinamide riboside chloride ([…]® from Chromadex) in PD patients was completed. In the trial, 30 individuals with newly diagnosed, drug naïve PD were randomized and given NR 500 mg×2/day or placebo for a period of 30 days. 31P-MRS was performed at baseline (Visit 1) and at on the last day of treatment (Visit 2). The scans of 27 individuals passed quality control at both visits. A single-center, double-blinded, randomized, placebo-controlled phase I trial of oral NR supplementation in newly diagnosed patients with PD was conducted. […] Due to the early onset, this patient underwent genetic investigation with whole-exome sequencing and SNP-chip based genome-wide copy number variation analysis, which excluded pathogenic mutations in PD-related genes, including PINK1 and PRKN. screening. Patient recruitment, inclusion, and follow-up was carried out by a GCP certified investigator. Sample size of 30 participants was chosen based on previously reported brain metabolic network analyses. Thirty PD patients were randomly assigned (Block size 6, allocation 1:1) to 500 mg NR, provided in the form of nicotinamide riboside chloride ([…]® from Chromadex), or placebo twice per day, 12 hours apart, using the electronic Case Report Form (Viedoc.com). The drug containers were sequentially marked by an independent third party. The […]®) and placebo were provided by ChromaDex, USA. Each NR capsule contained 250 mg of NR. Placebo capsules contained microcrystalline cellulose. The vials and capsules containing NR and placebo were identical in shape, colour, and smell. Study drug compliance was calculated from counting returned number of study capsules and self-reporting. Participants, examining physicians, medical- and research personnel were blinded for the duration of the trial. Sample size was determined by comparing previous literature with respect to the primary objective. At screening for trial entry, candidates underwent physical and neurological examination, brain MRI, and […]. Eligible patients who entered the trial were assessed at baseline (visit 1, V1) and after four weeks of exposure to either NR or placebo (visit 2, V2). At both visits, patients underwent physical and neurological examination, including assessment by the Movement Disorder Society Unified Parkinson's Disease Rating Scale section I-IV (MDS-UPDRS), and biological sampling. MR-PET was performed within one week prior to visit 1, and at visit 2. All participants remained naïve for antiparkinson drugs for the duration of the trial. All clinical assessments were performed by a blinded movement disorders expert. Each patient was examined by the same neurologist at both visits. Methodological details on each procedure are provided below. Safety was monitored through routine clinical blood tests and registration of adverse events. Adverse events (AE) were recorded and scored by the investigative physician. […] The AE relation to the study drug was scored as (1) unrelated, (2) unlikely, (3) possible, (4) probable or (5) definitely. MRI/S was conducted on a 3T Biograph mMR MR-PET scanner (Siemens Healthcare, Germany). Phosphorous MRS (31P-MRS) was performed on a double-resonant transmit/receive 1H/31P volume head-coil (Rapid Biomedical, Germany). […]

The subject of experiment [2] is gene expression in PBMCs. Description: RNA-seq differential gene expression in PBMCs. Type of experiment: in vivo, human. Here is the method: For all subjects at both visits, total RNA was extracted from muscle biopsy tissue and PBMC homogenate using RNeasy plus mini kit (Qiagen) with on-column DNase treatment according to manufacturer's protocol. The final elution was made in 45 ul of dH2O. The concentration and integrity of the total RNA were estimated by Ribogreen assay (Thermo Fisher Scientific), and Fragment Analyzer (Advanced Analytical), respectively, and 10 ng of total RNA was used for downstream RNA-seq applications using the SMARTer Stranded Total RNA-Seq Kit v2—Pico Input Mammalian Kit (IlluminaTakara Bio USA, Inc., Mountian View, CA) as per manufacturer's recommended protocol. Library quantity was assessed by Picogreen Assay (Thermo Fisher Scientific), and the library quality was estimated by utilizing a DNA High Sense chip on a Caliper Gx (Perkin Elmer). Accurate quantification of the final libraries for sequencing applications was determined using the qPCR-based KAPA Biosystems Library Quantification kit (Kapa Biosystems, Inc.). Each library pooled equimolar prior to clustering. One hundred bp paired-end sequencing was performed on an Illumina NovaSeq S4 sequencer (Illumina, Inc.). Two subjects were discarded from the PBMC samples and two from the muscle samples due to either insufficient tissue quantity, participant drop out/lack of sample, or being outliers in expression.
FASTQ files were assessed using fastQC version 0.11.9. Quantification at the transcript level was calculated using Salmon version 1.3.0 with fragment-level GC bias correction against the GENCODE version 35, with the whole genome as decoy sequence. Transcript-level quantification was collapsed onto gene-level using the tximport R package version 1.8.0. Genes in non-canonical chromosomes and scaffolds and transcripts encoded by the mitochondrial genome were filtered out, together with non-protein-coding genes. Low-expressed genes were likewise removed from downstream analyses (expression below 10 reads for 75% of the samples). PBMC and muscle datasets were analysed independently. For PBMC samples, cell type composition was assessed employing ABIS. Differential gene expression was performed using the DESeq2 R package version 1.22.2. The generalized linear model formula accounted for both interindividual variability between subjects and the normal course of the experiment (baseline for each subject and baseline for the time-course). Multiple hypothesis testing was performed with the default automatic filtering of DESeq2 followed by false discovery rate (FDR) calculation by the Benjamini-Hochberg procedure.

Experiment [3] relates to mice. Conditions: Xie et al. 2019; cited from earlier work.

As to `NC(=O)c1ccc[n+]([C@@H]2O[C@H](CO)[C@@H](O)[C@H]2O)c1` [NR, nicotinamide riboside], the “cerebral NAD levels normalized to ATP-α, visit 2 vs baseline” value in experiment [1] (NR group n=13, oral NR 500 mg x2/day, 30 days, paired t-test p=0.016) is “highly significant increase”. Besides, the “other metabolites detected by 31P-MRS, change between visits” value in experiment [1] (NR group, 30 days) is listed as “No other detected metabolites exhibited significant change”. In addition, the “patients showing an increase in cerebral NAD (MRS-responders)” value in experiment [1] (NR recipients with MRS data, 30 days) is 10/13. The “patients with cerebral NAD change exceeding 10% of baseline levels” value in experiment [1] (of the 10 MRS-responders among 13 NR recipients) is listed as 9. Moreover, the “between visit change (visit 2/visit 1) in NAD/ATP-α ratio, NR vs placebo group” value in experiment [1] (oral NR 500 mg x2/day, 30 days, t-test p=0.025) is “significantly higher”. Also, in experiment [2] (NR vs placebo), the “BLOC1S2 expression in PBMCs” value is listed as “upregulation”; the “functional enrichment in PBMCs: ribosomal, proteasomal, lysosomal and mitochondrial (oxidative phosphorylation) pathways” value is on record as “highly significant upregulation”; the “genes encoding known NAD biosynthetic enzymes including NMRK1” value was “No significant changes”; the “number of genes significantly associated with NR supplementation in PBMCs” value came to 13 genes. Moreover, the “Direction of pathway enrichment (MitoCarta v3.0): mtRNA metabolism” value in experiment [2] (P 0.003136, corrected P 0.13170171) is given as “DOWN”. Besides, the “Direction of pathway enrichment (MitoCarta v3.0): mt-tRNA modifications” value in experiment [2] (P 0.009994, corrected P 0.209874) was “DOWN”. The “Direction of pathway enrichment (MitoCarta v3.0): Cl assembly factors” value in experiment [2] (P 0.013122, corrected P 0.183708) is “DOWN”. Also, the “Direction of pathway enrichment (MitoCarta v3.0): mtRNA granules” value in experiment [2] (P 0.018336, corrected P 0.192528) is “DOWN”. Moreover, in experiment [2] (P 0.02605831, corrected P 0.21888977), the “Direction of pathway enrichment (MitoCarta v3.0): Vitamin metabolism” value was “DOWN”. In experiment [2] (P 0.027256, corrected P 0.190792), the “Direction of pathway enrichment (MitoCarta v3.0): Mitochondrial ribosome assembly” value is recorded as “DOWN”. For the same molecule, the “Direction of pathway enrichment (MitoCarta v3.0): mt-tRNA synthetases” value in experiment [2] (P 0.03548, corrected P 0.21288) is listed as “DOWN”. The “Direction of pathway enrichment (MitoCarta v3.0): OXPHOS assembly factors” value in experiment [2] (P 0.04239743, corrected P 0.2225865) was “DOWN”. In addition, the “association with estimated cell type proportions in PBMC samples” value in experiment [2] (p>0.5) was “did not show a significant association”. Further, the neuroprotection in mice entry in experiment [3] was “neuroprotective effects”.
